This is an account of results in ChEMBL document CHEMBL2311506, “Novel benzoxazole inhibitors of mPGES-1” (Bioorg Med Chem Lett, 2013).

In general, IC50 refers to the concentration at which inhibition is half-maximal. The term Cmax denotes the highest concentration seen after dosing. As usually defined, the MRT is the average time that molecules of a dose stay in the body. One may read the Tmax as the time at which the peak concentration occurs. In general, bioavailability refers to the share of a dose that reaches the circulation, judged against a reference dose that is usually intravenous. Lower therefore signals poor availability. Usually half-life stands for the time needed for the level to fall by half in the phase considered.

Where only a bound is given, the exact number is not on record here.

The target of one data set is T1, Prostaglandin E synthase (Homo sapiens, UniProt O14684).
T1 sequence (O14684 whole entry): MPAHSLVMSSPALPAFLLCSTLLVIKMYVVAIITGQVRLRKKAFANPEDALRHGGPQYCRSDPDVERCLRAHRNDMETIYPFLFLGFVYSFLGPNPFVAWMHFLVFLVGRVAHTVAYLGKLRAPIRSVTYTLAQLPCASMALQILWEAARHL
The experiment in a line: Inhibition of human recombinant mPGES-1 using PGH2 as substrate incubated 20 mins prior to substrate addition measured after 30 secs by EIA.

Data set [1] in a line: Plasma protein binding in human. It counts as ADME, cell-free. As to conditions: read-out: PPB (converted).
In data set [2] the target is T2, Prostaglandin G/H synthase 2 (Homo sapiens, UniProt P35354).
T2 sequence (P35354 whole entry): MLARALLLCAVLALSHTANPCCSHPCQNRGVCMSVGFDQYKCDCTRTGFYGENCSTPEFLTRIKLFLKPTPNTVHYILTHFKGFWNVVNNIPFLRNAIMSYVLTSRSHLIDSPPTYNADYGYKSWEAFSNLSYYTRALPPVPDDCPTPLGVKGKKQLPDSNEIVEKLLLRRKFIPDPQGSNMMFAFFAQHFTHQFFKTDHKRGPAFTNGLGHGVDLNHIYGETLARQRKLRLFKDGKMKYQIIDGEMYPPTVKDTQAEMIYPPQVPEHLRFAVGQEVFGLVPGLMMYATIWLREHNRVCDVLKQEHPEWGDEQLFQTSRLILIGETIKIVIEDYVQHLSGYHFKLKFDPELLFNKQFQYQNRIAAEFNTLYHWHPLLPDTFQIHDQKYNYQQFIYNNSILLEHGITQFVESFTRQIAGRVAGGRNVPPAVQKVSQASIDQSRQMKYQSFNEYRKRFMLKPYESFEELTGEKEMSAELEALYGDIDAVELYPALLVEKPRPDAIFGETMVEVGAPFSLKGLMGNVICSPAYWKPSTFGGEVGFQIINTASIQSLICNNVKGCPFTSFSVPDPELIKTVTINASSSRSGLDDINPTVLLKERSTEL
The experiment in a line: Inhibition of COX2 in human fetal fibroblast assessed as SnCl2-induced PGF2alpha production after 40 mins by ELISA.

A short description of data set [3]: Cmax in dog at 0.5 mg/kg, po. Details: dose 0.5 mg/kg, route oral. Format: ADME, organism-based, Canis lupus familiaris. The conditions noted are these: in vivo.
Data set [4] is described as follows: Inhibition of recombinant rat mPGES-1 using PGH2 as substrate incubated 20 mins prior to substrate addition measured after 30 secs by EIA.
Data set [5] is described as follows: Permeability of the compound by pampa. Format: ADME. The conditions noted are these: read-out: permeability.
Data set [6] has as its target Hematopoietic prostaglandin D synthase (Homo sapiens, UniProt O60760). The experiment in a line: Inhibition of human PGDS.
The nature of data set [7]: Mean residence time in dog at 0.25 mg/kg, iv. The conditions noted are these: in vivo. Details: dose 0.25 mg/kg, route intravenous. Format: ADME, organism-based, Canis lupus familiaris.
Data set [8] in a line: Tmax in dog at 0.5 mg/kg, po. Format: ADME, organism-based, Canis lupus familiaris. Set-up: dose 0.5 mg/kg, route oral. As to conditions: in vivo.
Data set [9] in a line: Oral bioavailability in dog at 0.5. Format: ADME, organism-based, Canis lupus familiaris. As to conditions: in vivo.
The nature of data set [10]: Volume of distribution at steady state in dog at 0.25 mg/kg, iv. As to conditions: in vivo, read-out: Vdss. It counts as ADME, organism-based, Canis lupus familiaris. Set-up: dose 0.25 mg/kg, route intravenous.
Data set [11] is described as follows: Half life in dog at 0.25 mg/kg, iv. The conditions noted are these: in vivo. Format: ADME, organism-based, Canis lupus familiaris. Set-up: dose 0.25 mg/kg, route intravenous.
A short description of data set [12]: Half life in human liver microsomes. Format: ADME, Microsome. (In general: Liver microsomes are vesicles of endoplasmic reticulum, rich in cytochrome P450 enzymes.)
A short description of data set [13]: Half life in rat liver microsomes. It counts as ADME, Microsome.
A short description of data set [14]: Plasma protein binding in rat. It counts as ADME, cell-free. The conditions noted are these: read-out: PPB (converted).
Data set [15] is described as follows: Half life in human hepatocytes. It counts as ADME, cell-based, Hepatocyte.
Data set [16] is described as follows: Inhibition of rat mPGES-1 transfected in CHOK1 cells using [3H]PGH2 as substrate. It counts as cell-based. The conditions noted are these: cho-k1.

Chain of Hematopoietic prostaglandin D synthase (O60760 whole entry): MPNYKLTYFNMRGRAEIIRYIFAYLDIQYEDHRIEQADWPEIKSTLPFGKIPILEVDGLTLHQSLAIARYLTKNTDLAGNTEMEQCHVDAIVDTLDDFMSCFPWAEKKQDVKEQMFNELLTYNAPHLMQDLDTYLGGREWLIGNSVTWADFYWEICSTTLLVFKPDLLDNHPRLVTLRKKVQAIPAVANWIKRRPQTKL

For `CSCCNC(=O)C1CCN(c2nc3cc(Cl)ccc3o2)CC1`, on Prostaglandin E synthase, the IC50 was 1.2 µM.
Same read-out and setting: for `O=C(NC1CCCCCC1)C1CCN(c2nc3cc(Cl)ccc3o2)CC1` the value was 0.821 µM.
The same measure, in the same setting: for `CC1CCCC1NC(=O)C1CCN(c2nc3cc(Cl)ccc3o2)CC1` (stereo unspecified) the value was 0.242 µM.
Take `O=C(NC1CCC1)C1CCN(c2nc3cc(Cl)ccc3o2)CC1`: the IC50 at Prostaglandin E synthase worked out at 3.01 µM.
For `O=C(N[C@H]1CCC[C@@H]1COc1ccccc1)C1CCN(c2nc3cc(Cl)ccc3o2)CC1`, the IC50 on Prostaglandin E synthase turned out to be 0.034 µM. For the same compound, the fraction unbound in data set [1] is under 0.01.
Take `O=C(N[C@@H]1CCC[C@H]1OCC1CCCC1)C1CCN(c2nc3cc(Cl)ccc3o2)CC1`: the IC50 on Prostaglandin E synthase worked out at 0.176 µM.
For `O=S(=O)(NC1CCCC1)C1CCN(c2nc3cc(Cl)ccc3o2)CC1`, the IC50 on Prostaglandin E synthase is over 10 µM.
As for `O=C(CCCNc1nc2cc(Cl)ccc2o1)NC1CCCC1`, on Prostaglandin E synthase, the IC50 was over 10 µM.
As for `O=C(NC1CCCC1c1ccccc1)C1CCN(c2nc3cc(Cl)ccc3o2)CC1` (stereo unspecified), at Prostaglandin E synthase, the IC50 came to 0.291 µM.
The same measure, in the same setting: for `O=C(NC1CCCC1C(=O)O)C1CCN(c2nc3cc(Cl)ccc3o2)CC1` (stereo unspecified) the value was 7.18 µM.
Turning to `O=C(N[C@H]1CCC[C@@H]1OCc1ccccc1)C1CCN(c2nc3cc(Cl)ccc3o2)CC1`, the values for the IC50 in [2], in data set [4] and in [6] were over 100 µM, over 10 µM and over 10 µM, respectively. This compound displayed a Cmax in [3] of 1300 nM. In addition, in [5], the Papp was determined as 1.3 ×10⁻⁶ cm/s. This compound yielded a mean residence time MRT in data set [7] of 486 min. The Tmax in data set [8] was 30 min. The compound further registered a bioavailability in data set [9] of 55%. Besides, the Vd in data set [10] was determined as 1 L/kg. Also, the half-life is 432 min in data set [11], 10.8 min in data set [12], 7.2 min in data set [13] and 80 min in [15]. In data set [14], the fraction unbound is 0.02.
Turning to `O=C(N[C@H]1CCC[C@@H]1CO)C1CCN(c2nc3cc(Cl)ccc3o2)CC1`, the IC50 on Prostaglandin E synthase stood at 3.2 µM.
Turning to `O=C(NC1CCCC1)C1CCN(c2nc3cc(Cl)ccc3o2)CC1`, the IC50 in data set [2] was over 100 µM. In data set [1], the fraction unbound was 0.005.
`O=C(N[C@@H]1CCC[C@@H]1COc1ccccc1)C1CCN(c2nc3cc(Cl)ccc3o2)CC1`: on Prostaglandin E synthase, the IC50 came to 0.0431 µM.
The same measure, in the same setting: for `CN(C(=O)C1CCN(c2nc3cc(Cl)ccc3o2)CC1)C1CCCC1` the value was over 30 µM; for `CO[C@@H]1CCC[C@H]1NC(=O)C1CCN(c2nc3cc(Cl)ccc3o2)CC1`, 8.15 µM.
For the compound `CC(C)c1ccc2c(c1)c(SC(C)(C)C)c(CC(C)(C)C(=O)O)n2Cc1ccc(Cl)cc1`, in data set [16], 8.2 µM corresponded to half-maximal inhibition (IC50).
For `O=C(NC1CCCC1)N1CCN(c2nc3cc(Cl)ccc3o2)CC1`, the IC50 at Prostaglandin E synthase is over 10 µM.
On the same count and under the same terms, for `O=C(N[C@@H]1CCC[C@@H]1CO)C1CCN(c2nc3cc(Cl)ccc3o2)CC1` the value was 0.785 µM.
Still for that read-out and setting: to `O=C(NC1CCCC1)N1CCCN(c2nc3cc(Cl)ccc3o2)CC1` belongs 12.9 µM.
The same measure, in the same setting: for `CCCCO[C@@H]1CCC[C@H]1NC(=O)C1CCN(c2nc3cc(Cl)ccc3o2)CC1` the value was 0.826 µM.
